Square brackets hold non-standard residues; d marks the D form. Peptide text beside a SMILES is read from it. * marks the point of attachment. ξ: configuration not given here. Dansyl = CN(C)c1cccc2c(S(=O)(=O)*)cccc12; ξL = CC(C)CC(N)C(=O)O
What follows are molecules tested on receptor labeled by the radioiodinated analogue of 1 (4, [125I]-YLFQPQRF-NH2); neuropeptide FF receptor (assay: Competitive radioligand binding against 4 ([125I]Y8F-amide)). Conditions: mixture-based positional scanning; difference from averaged radioligand displacement of whole library (0); about 80 a.u. = 10-fold change in Ki.
In the case of `CN(C)c1cccc2c(S(=O)(=O)N[C@@H](Cc3c[nH]c4ccccc34)C(=O)N[C@@H](CCCCN)C(=O)N[C@@H](CCCNC(=N)N)C(N)=O)cccc12` [Dansyl-WKR-amide] (Dansyl-Trp-Lys-Arg-NH2), the “Relative Binding Index (RBI)” value is reported as 6 a.u.
With `CN(C)c1cccc2c(S(=O)(=O)N[C@@H](CCC(=O)O)C(=O)N[C@@H](CO)C(=O)N[C@@H](CCCNC(=N)N)C(N)=O)cccc12` [Dansyl-ESR-amide] (Dansyl-Glu-Ser-Arg-NH2) the “Relative Binding Index (RBI)” value was 37 a.u.
With `CN(C)c1cccc2c(S(=O)(=O)N[C@@H](Cc3c[nH]c4ccccc34)C(=O)N3CCC[C@H]3C(=O)N[C@@H](CCCNC(=N)N)C(N)=O)cccc12` [Dansyl-WPR-amide] (Dansyl-Trp-Pro-Arg-NH2) the “Relative Binding Index (RBI)” value was 12 a.u.
With `CN(C)c1cccc2c(S(=O)(=O)N[C@@H](CC(=O)O)C(=O)N[C@@H](CO)C(=O)N[C@@H](CCCNC(=N)N)C(N)=O)cccc12` [Dansyl-DSR-amide] (Dansyl-Asp-Ser-Arg-NH2) the “Relative Binding Index (RBI)” value was 15 a.u.
With `CN(C)c1cccc2c(S(=O)(=O)N[C@@H](Cc3c[nH]cn3)C(=O)N[C@@H](Cc3c[nH]cn3)C(=O)N[C@@H](CCCNC(=N)N)C(N)=O)cccc12` [Dansyl-HHR-amide] (Dansyl-His-His-Arg-NH2) the “Relative Binding Index (RBI)” value was 11 a.u.
With `CC(C)C[C@H](NS(=O)(=O)c1cccc2c(N(C)C)cccc12)C(=O)N[C@H](C(=O)N[C@@H](CCCNC(=N)N)C(N)=O)[C@@H](C)O` [Dansyl-LTR-amide] (Dansyl-Leu-Thr-Arg-NH2) the “Relative Binding Index (RBI)” value was −26 a.u.
`C[C@H](NC(=O)[C@H](CCC(=O)O)NS(=O)(=O)c1cccc2c(N(C)C)cccc12)C(=O)N[C@@H](CCCNC(=N)N)C(N)=O` [Dansyl-EAR-amide] (Dansyl-Glu-Ala-Arg-NH2) was tested, and the “Relative Binding Index (RBI)” value was −32 a.u.
For `CN(C)c1cccc2c(S(=O)(=O)NCC(=O)N[C@@H](CC(N)=O)C(=O)N[C@@H](CCCNC(=N)N)C(N)=O)cccc12` [Dansyl-GNR-amide] (Dansyl-Gly-Asn-Arg-NH2), the “Relative Binding Index (RBI)” value was 26 a.u.
In the case of `CC(C)C[C@H](NS(=O)(=O)c1cccc2c(N(C)C)cccc12)C(=O)N[C@@H](CCCNC(=N)N)C(=O)N[C@@H](CCCNC(=N)N)C(N)=O` [Dansyl-LRR-amide] (Dansyl-Leu-Arg-Arg-NH2), the “Relative Binding Index (RBI)” value is reported as −33 a.u.
With `CN(C)c1cccc2c(S(=O)(=O)N[C@@H](Cc3ccccc3)C(=O)N[C@@H](Cc3ccccc3)C(=O)N[C@@H](CCCNC(=N)N)C(N)=O)cccc12` [Dansyl-FFR-amide] (Dansyl-Phe-Phe-Arg-NH2) the “Relative Binding Index (RBI)” value was 8 a.u.
With `C[C@H](NC(=O)[C@@H](NS(=O)(=O)c1cccc2c(N(C)C)cccc12)[C@@H](C)O)C(=O)N[C@@H](CCCNC(=N)N)C(N)=O` [Dansyl-TAR-amide] (Dansyl-Thr-Ala-Arg-NH2) the “Relative Binding Index (RBI)” value was −58 a.u.
For `C[C@@H](O)[C@H](NS(=O)(=O)c1cccc2c(N(C)C)cccc12)C(=O)N[C@@H](CC(N)=O)C(=O)N[C@@H](CCCNC(=N)N)C(N)=O` [Dansyl-TNR-amide] (Dansyl-Thr-Asn-Arg-NH2), the “Relative Binding Index (RBI)” value was −7 a.u.
For `CN(C)c1cccc2c(S(=O)(=O)N[C@@H](CC(N)=O)C(=O)N[C@@H](Cc3c[nH]cn3)C(=O)N[C@@H](CCCNC(=N)N)C(N)=O)cccc12` [Dansyl-NHR-amide] (Dansyl-Asn-His-Arg-NH2), the “Relative Binding Index (RBI)” value was 7 a.u.
`CC(C)C[C@H](NS(=O)(=O)c1cccc2c(N(C)C)cccc12)C(=O)N1CCC[C@H]1C(=O)N[C@@H](CCCNC(=N)N)C(N)=O` [Dansyl-LPR-amide] (Dansyl-Leu-Pro-Arg-NH2) was tested, and the “Relative Binding Index (RBI)” value was −29 a.u.
In the case of `C[C@H](NC(=O)[C@H](CCCNC(=N)N)NS(=O)(=O)c1cccc2c(N(C)C)cccc12)C(=O)N[C@@H](CCCNC(=N)N)C(N)=O` [Dansyl-RAR-amide] (Dansyl-Arg-Ala-Arg-NH2), the “Relative Binding Index (RBI)” value is reported as −42 a.u.
With `CN(C)c1cccc2c(S(=O)(=O)N[C@@H](CCCNC(=N)N)C(=O)NCC(=O)N[C@@H](CCCNC(=N)N)C(N)=O)cccc12` [Dansyl-RGR-amide] (Dansyl-Arg-Gly-Arg-NH2) the “Relative Binding Index (RBI)” value was 12 a.u.
In the case of `CSCC[C@H](NS(=O)(=O)c1cccc2c(N(C)C)cccc12)C(=O)NCC(=O)N[C@@H](CCCNC(=N)N)C(N)=O` [Dansyl-MGR-amide] (Dansyl-Met-Gly-Arg-NH2), the “Relative Binding Index (RBI)” value is reported as −39 a.u.
`CC(C)[C@H](NS(=O)(=O)c1cccc2c(N(C)C)cccc12)C(=O)N[C@@H](CCC(N)=O)C(=O)N[C@@H](CCCNC(=N)N)C(N)=O` [Dansyl-VQR-amide] (Dansyl-Val-Gln-Arg-NH2) was tested, and the “Relative Binding Index (RBI)” value was 9 a.u.
For `CC(C)C[C@H](NS(=O)(=O)c1cccc2c(N(C)C)cccc12)C(=O)NCC(=O)N[C@@H](CCCNC(=N)N)C(N)=O` [Dansyl-LGR-amide] (Dansyl-Leu-Gly-Arg-NH2), the “Relative Binding Index (RBI)” value was −27 a.u.
In the case of `CN(C)c1cccc2c(S(=O)(=O)N[C@@H](CC(=O)O)C(=O)N[C@@H](CCC(N)=O)C(=O)N[C@@H](CCCNC(=N)N)C(N)=O)cccc12` [Dansyl-DQR-amide] (Dansyl-Asp-Gln-Arg-NH2), the “Relative Binding Index (RBI)” value is reported as 8 a.u.
In the case of `C[C@@H](O)[C@H](NC(=O)[C@H](CCC(N)=O)NS(=O)(=O)c1cccc2c(N(C)C)cccc12)C(=O)N[C@@H](CCCNC(=N)N)C(N)=O` [Dansyl-QTR-amide] (Dansyl-Gln-Thr-Arg-NH2), the “Relative Binding Index (RBI)” value is reported as 27 a.u.
In the case of `CC(C)CC(NC(=O)[C@H](CC(N)=O)NS(=O)(=O)c1cccc2c(N(C)C)cccc12)C(=O)N[C@@H](CCCNC(=N)N)C(N)=O` (stereo partly drawn) [Dansyl-NLR-amide] (Dansyl-Asn-[ξL]-Arg-NH2), the “Relative Binding Index (RBI)” value is reported as 4 a.u.
`CN(C)c1cccc2c(S(=O)(=O)N[C@@H](CC(N)=O)C(=O)N[C@@H](CO)C(=O)N[C@@H](CCCNC(=N)N)C(N)=O)cccc12` [Dansyl-NSR-amide] (Dansyl-Asn-Ser-Arg-NH2) was tested, and the “Relative Binding Index (RBI)” value was 33 a.u.
In the case of `CN(C)c1cccc2c(S(=O)(=O)N[C@@H](Cc3cnc[nH]3)C(=O)N[C@@H](CCCCN)C(=O)N[C@@H](CCCNC(=N)N)C(N)=O)cccc12` [Dansyl-HKR-amide] (Dansyl-His-Lys-Arg-NH2), the “Relative Binding Index (RBI)” value is reported as 14 a.u.
In the case of `C[C@H](NS(=O)(=O)c1cccc2c(N(C)C)cccc12)C(=O)N[C@@H](CC(=O)O)C(=O)N[C@@H](CCCNC(=N)N)C(N)=O` [Dansyl-ADR-amide] (Dansyl-Ala-Asp-Arg-NH2), the “Relative Binding Index (RBI)” value is reported as −6 a.u.
In the case of `CC(C)[C@H](NC(=O)[C@H](CO)NS(=O)(=O)c1cccc2c(N(C)C)cccc12)C(=O)N[C@@H](CCCNC(=N)N)C(N)=O` [Dansyl-SVR-amide] (Dansyl-Ser-Val-Arg-NH2), the “Relative Binding Index (RBI)” value is reported as 12 a.u.
For `CC(O)C(NS(=O)(=O)c1cccc2c(N(C)C)cccc12)C(=O)NC(Cc1ccccc1)C(=O)NC(CCCNC(=N)N)C(N)=O` (stereo not drawn) [Dansyl-TFR-amide] (Dansyl-Thr-Phe-Arg-NH2; configuration not given here), the “Relative Binding Index (RBI)” value was −10 a.u.
In the case of `C[C@H](NC(=O)[C@H](CCCCN)NS(=O)(=O)c1cccc2c(N(C)C)cccc12)C(=O)N[C@@H](CCCNC(=N)N)C(N)=O` [Dansyl-KAR-amide] (Dansyl-Lys-Ala-Arg-NH2), the “Relative Binding Index (RBI)” value is reported as −24 a.u.
In the case of `CN(C)c1cccc2c(S(=O)(=O)N[C@@H](CC(=O)O)C(=O)N[C@@H](CC(=O)O)C(=O)N[C@@H](CCCNC(=N)N)C(N)=O)cccc12` [Dansyl-DDR-amide] (Dansyl-Asp-Asp-Arg-NH2), the “Relative Binding Index (RBI)” value is reported as −24 a.u.
In the case of `CN(C)c1cccc2c(S(=O)(=O)N[C@@H](CC(N)=O)C(=O)N3CCC[C@H]3C(=O)N[C@@H](CCCNC(=N)N)C(N)=O)cccc12` [Dansyl-NPR-amide] (Dansyl-Asn-Pro-Arg-NH2), the “Relative Binding Index (RBI)” value is reported as 16 a.u.
With `CN(C)c1cccc2c(S(=O)(=O)N[C@@H](CCCNC(=N)N)C(=O)N[C@@H](Cc3ccc(O)cc3)C(=O)N[C@@H](CCCNC(=N)N)C(N)=O)cccc12` [Dansyl-RYR-amide] (Dansyl-Arg-Tyr-Arg-NH2) the “Relative Binding Index (RBI)” value was 6 a.u.
In the case of `CSCC[C@H](NC(=O)CNS(=O)(=O)c1cccc2c(N(C)C)cccc12)C(=O)N[C@@H](CCCNC(=N)N)C(N)=O` [Dansyl-GMR-amide] (Dansyl-Gly-Met-Arg-NH2), the “Relative Binding Index (RBI)” value is reported as 25 a.u.
In the case of `CN(C)c1cccc2c(S(=O)(=O)N3CCC[C@H]3C(=O)N[C@@H](CCCNC(=N)N)C(=O)N[C@@H](CCCNC(=N)N)C(N)=O)cccc12` [Dansyl-PRR-amide], the “Relative Binding Index (RBI)” value is reported as −49 a.u.
With `CN(C)c1cccc2c(S(=O)(=O)NCC(=O)N[C@@H](Cc3c[nH]cn3)C(=O)N[C@@H](CCCNC(=N)N)C(N)=O)cccc12` [Dansyl-GHR-amide] (Dansyl-Gly-His-Arg-NH2) the “Relative Binding Index (RBI)” value was 19 a.u.
For `C[C@H](NS(=O)(=O)c1cccc2c(N(C)C)cccc12)C(=O)N1CCC[C@H]1C(=O)N[C@@H](CCCNC(=N)N)C(N)=O` [Dansyl-APR-amide] (Dansyl-Ala-Pro-Arg-NH2), the “Relative Binding Index (RBI)” value was 15 a.u.
`CN(C)c1cccc2c(S(=O)(=O)N[C@@H](CCCNC(=N)N)C(=O)N[C@@H](CCC(=O)O)C(=O)N[C@@H](CCCNC(=N)N)C(N)=O)cccc12` [Dansyl-RER-amide] (Dansyl-Arg-Glu-Arg-NH2) was tested, and the “Relative Binding Index (RBI)” value was 7 a.u.
With `C[C@@H](O)[C@H](NS(=O)(=O)c1cccc2c(N(C)C)cccc12)C(=O)N1CCC[C@H]1C(=O)N[C@@H](CCCNC(=N)N)C(N)=O` [Dansyl-TPR-amide] (Dansyl-Thr-Pro-Arg-NH2) the “Relative Binding Index (RBI)” value was −5 a.u.
In the case of `CN(C)c1cccc2c(S(=O)(=O)N[C@@H](CCC(=O)O)C(=O)N[C@@H](CCC(=O)O)C(=O)N[C@@H](CCCNC(=N)N)C(N)=O)cccc12` [Dansyl-EER-amide] (Dansyl-Glu-Glu-Arg-NH2), the “Relative Binding Index (RBI)” value is reported as 17 a.u.
With `CCC(C)C(NC(=O)C(Cc1c[nH]c2ccccc12)NS(=O)(=O)c1cccc2c(N(C)C)cccc12)C(=O)NC(CCCNC(=N)N)C(N)=O` (stereo not drawn) [Dansyl-WIR-amide] (Dansyl-Trp-Ile-Arg-NH2; configuration not given here) the “Relative Binding Index (RBI)” value was 15 a.u.

— patent US6960574B2, “Antagonists of RF-amide neuropeptides” (University of Florida, priority 2002, dated 2005)
